Reference: US8501446B2 (Vertex Pharmaceuticals Incorporated, priority 2004, dated 2013)

Columns and labels:
Type in all cases: biochemical
[1] = target: T1, full length Aurora-A (AA 1-403) (Homo sapiens, UniProt O14965); assay: Aurora-A inhibition assay, standard coupled enzyme system; details: average Ki if more than one value determined
T1 construct: full length Aurora-A (AA 1-403)
T1 sequence (O14965 1-403): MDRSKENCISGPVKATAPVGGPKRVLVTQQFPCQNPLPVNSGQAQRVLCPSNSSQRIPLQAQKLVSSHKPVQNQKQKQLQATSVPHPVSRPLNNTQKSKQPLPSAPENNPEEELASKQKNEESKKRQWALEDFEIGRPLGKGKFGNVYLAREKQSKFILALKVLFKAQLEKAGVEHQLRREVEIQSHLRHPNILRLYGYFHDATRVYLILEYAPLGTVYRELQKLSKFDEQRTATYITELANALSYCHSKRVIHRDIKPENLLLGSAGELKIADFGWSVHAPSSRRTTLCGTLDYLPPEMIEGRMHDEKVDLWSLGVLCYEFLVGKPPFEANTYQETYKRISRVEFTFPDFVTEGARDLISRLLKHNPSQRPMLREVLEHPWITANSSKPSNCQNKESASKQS

ROCK I (AA 6-553) = target: T2, ROCK I (AA 6-553) (Homo sapiens, UniProt Q13464); assay: ROCK inhibition assay, standard coupled enzyme system ("Enzyme"); details: enzyme-linked assay
T2 construct: ROCK I (AA 6-553)
T2 sequence (Q13464 6-553, species assumed): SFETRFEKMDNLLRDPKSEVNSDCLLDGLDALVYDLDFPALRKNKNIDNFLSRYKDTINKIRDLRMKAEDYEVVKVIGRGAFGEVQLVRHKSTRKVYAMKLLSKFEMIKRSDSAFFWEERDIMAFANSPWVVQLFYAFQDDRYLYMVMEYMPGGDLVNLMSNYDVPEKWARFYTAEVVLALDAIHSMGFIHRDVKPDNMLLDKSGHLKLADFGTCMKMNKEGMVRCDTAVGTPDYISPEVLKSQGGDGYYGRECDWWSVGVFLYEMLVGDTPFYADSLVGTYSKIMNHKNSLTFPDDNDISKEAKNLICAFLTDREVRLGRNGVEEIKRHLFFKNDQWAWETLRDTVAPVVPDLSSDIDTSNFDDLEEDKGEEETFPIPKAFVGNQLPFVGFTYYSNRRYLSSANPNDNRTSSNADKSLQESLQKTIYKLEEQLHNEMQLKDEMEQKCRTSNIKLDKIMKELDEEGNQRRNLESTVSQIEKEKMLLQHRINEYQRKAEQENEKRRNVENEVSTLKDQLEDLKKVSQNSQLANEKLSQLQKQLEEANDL
How it was run: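 ROCK I (AA 6-553) at 45 nM and 30 °C with 45 μM ATP and 200 μM peptide, in 100 mM HEPES pH 7.5, 10 mM MgCl2, 25 mM NaCl, 2 mM DTT, 1.5% DMSO. ADP output read by a PK/LDH coupled system: 2.5 mM PEP, 350 μM NADH, 30 μg/ml PK, 10 μg/ml LDH.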

JAK2 = JAK2 (Homo sapiens, UniProt O60674); assay: JAK2 inhibition assay (radioactive enzyme assay, as for JAK3); details: average Ki if more than one value determined
JAK2, sequence (O60674 whole entry, species assumed): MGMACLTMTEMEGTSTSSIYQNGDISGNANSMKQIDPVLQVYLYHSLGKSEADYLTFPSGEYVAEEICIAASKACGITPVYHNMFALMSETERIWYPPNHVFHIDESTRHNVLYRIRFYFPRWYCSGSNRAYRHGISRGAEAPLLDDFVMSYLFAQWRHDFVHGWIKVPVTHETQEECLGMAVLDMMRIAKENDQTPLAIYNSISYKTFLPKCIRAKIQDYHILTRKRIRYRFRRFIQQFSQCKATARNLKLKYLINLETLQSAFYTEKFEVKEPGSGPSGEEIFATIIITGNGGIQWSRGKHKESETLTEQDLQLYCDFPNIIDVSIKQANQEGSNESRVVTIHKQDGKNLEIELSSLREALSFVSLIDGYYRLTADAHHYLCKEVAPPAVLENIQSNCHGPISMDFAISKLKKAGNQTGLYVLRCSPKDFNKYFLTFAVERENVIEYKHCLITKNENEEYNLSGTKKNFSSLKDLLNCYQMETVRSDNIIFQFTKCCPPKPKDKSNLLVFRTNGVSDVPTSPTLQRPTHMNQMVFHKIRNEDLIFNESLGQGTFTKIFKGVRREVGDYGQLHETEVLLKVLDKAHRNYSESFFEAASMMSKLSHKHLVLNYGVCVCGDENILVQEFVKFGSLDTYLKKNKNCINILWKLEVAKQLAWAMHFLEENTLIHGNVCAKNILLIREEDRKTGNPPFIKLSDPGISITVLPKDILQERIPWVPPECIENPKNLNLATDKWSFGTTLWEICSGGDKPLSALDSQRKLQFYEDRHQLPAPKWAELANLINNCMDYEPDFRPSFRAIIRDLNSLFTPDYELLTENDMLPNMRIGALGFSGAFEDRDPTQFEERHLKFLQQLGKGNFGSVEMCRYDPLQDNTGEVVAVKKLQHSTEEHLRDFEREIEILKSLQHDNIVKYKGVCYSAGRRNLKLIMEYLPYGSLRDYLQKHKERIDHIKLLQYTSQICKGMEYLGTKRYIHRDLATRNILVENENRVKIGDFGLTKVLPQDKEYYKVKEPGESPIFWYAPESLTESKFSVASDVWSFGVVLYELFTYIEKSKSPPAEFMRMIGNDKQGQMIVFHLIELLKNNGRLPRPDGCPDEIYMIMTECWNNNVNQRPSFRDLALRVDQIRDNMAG
How it was run: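 Both kinases: poly(Glu)4Tyr substrate in 100 mM HEPES pH 7.4, 10 mM MgCl2, 1 mM DTT. Run 20 min at 25° C, TCA stop, filter-bound ³³P counted, Ki(app) fitted after background subtraction. JAK3: final [γ-³³P]ATP 5 μM, enzyme added as 2 nM solution. JAK2: final poly(Glu)4Tyr 15 μM, final ATP 12 μM.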

JAK3 = target: T3, JAK3 (Homo sapiens, UniProt P52333); assay: JAK3 inhibition assay (standard radioactive enzyme assay); details: average Ki if more than one value determined
T3 sequence (P52333 1-1124): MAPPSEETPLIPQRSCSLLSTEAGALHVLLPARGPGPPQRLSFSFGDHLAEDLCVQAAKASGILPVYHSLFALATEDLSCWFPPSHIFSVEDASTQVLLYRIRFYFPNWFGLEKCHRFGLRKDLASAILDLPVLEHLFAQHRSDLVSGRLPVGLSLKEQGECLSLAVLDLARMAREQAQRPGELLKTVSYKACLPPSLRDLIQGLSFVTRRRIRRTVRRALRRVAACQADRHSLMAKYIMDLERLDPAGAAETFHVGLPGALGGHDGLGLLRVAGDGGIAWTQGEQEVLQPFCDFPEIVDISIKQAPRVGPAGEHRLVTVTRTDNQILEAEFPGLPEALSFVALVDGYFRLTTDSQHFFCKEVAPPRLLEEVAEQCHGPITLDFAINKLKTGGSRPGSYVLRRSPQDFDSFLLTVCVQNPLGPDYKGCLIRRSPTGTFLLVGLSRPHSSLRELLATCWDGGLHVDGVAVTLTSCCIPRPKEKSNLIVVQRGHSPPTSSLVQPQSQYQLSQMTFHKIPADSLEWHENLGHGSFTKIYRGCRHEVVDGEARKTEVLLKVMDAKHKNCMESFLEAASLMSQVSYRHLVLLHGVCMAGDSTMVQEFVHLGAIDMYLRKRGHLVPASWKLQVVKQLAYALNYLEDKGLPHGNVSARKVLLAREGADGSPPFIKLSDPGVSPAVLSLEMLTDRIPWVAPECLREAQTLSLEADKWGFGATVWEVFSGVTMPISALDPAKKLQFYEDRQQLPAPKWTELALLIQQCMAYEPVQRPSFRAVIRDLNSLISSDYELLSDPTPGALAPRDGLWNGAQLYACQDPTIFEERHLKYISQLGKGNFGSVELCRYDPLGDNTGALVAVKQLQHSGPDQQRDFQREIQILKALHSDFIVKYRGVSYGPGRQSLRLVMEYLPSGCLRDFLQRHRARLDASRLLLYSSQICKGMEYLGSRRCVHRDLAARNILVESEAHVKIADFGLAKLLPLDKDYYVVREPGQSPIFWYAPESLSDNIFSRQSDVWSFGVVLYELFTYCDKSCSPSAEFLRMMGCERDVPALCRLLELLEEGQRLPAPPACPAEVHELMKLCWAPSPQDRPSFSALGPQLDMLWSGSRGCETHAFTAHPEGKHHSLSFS

Aurora-B = Aurora-B (Homo sapiens, UniProt Q96GD4); assay: Aurora-B inhibition assay, radioactive assay; details: average Ki if more than one value determined
Aurora-B, sequence (Q96GD4 whole entry): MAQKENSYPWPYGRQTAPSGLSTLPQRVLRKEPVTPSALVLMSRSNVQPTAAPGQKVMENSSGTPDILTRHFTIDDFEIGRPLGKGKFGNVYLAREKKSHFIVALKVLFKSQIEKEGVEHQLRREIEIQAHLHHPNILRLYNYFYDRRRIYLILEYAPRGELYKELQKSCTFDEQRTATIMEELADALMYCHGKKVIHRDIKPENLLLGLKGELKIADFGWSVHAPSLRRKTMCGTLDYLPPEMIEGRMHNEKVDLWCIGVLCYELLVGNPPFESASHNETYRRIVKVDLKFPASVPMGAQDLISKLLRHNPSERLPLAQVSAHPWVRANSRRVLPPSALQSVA
Experimental: Compounds were screened for their ability to inhibit JAK3 using a standard radioactive enzyme assay. 1.5 μL/well of a DMSO stock containing serial dilutions of a compound of the present invention (concentrations ranging from 667 μM to 46 nM) was placed in a 96 well polycarbonate plate. 50 μL per well of kinase buffer (100 mM HEPES (pH 7.4), 10 mM MgCl2, 25 mM NaCl, 1 mM DTT, and 0.01% bovine serum albumin (BSA)) containing 2 μM poly(Glu)4Tyr and 10 μM ATP was also added to the plate. To initiate the reaction, 50 μL kinase buffer containing 2 nM JAK3 enzyme was added. Final ATP concentration was 5 μM [γ-^33P] ATP (200 μCi ^33P ATP/μmol ATP (Perkin Elmer, Cambridge, Mass.). After 20 minutes at room temperature (25° C.), the reaction was stopped by adding 50 μL 20% trichloroacetic acid (TCA)/0.4 mM ATP to each well. The entire content of each well was then transferred to a 96 well glass fiber filter plate using a TomTek Cell Harvester. After washing, 60 μL scintillation fluid was added and ^33P incorporation detected using a Perkin Elmer TopCount. After removing mean background values for all of the data points the data was fit using Prism software to obtain a Ki(app). Inhibition of JAK2 was measured as above except that final poly(Glu)4Tyr concentration was 15 μM and final ATP concentration was 12 μM.
Some compounds were screened for their ability to inhibit ROCK using a standard radioactive enzyme assay. Assays were carried out in a solution containing 100 mM HEPES (pH 7.5), 10 mM MgCl2, 25 mM NaCl, 2 mM DTT, and 1.5% DMSO. Final substrate concentrations in the assay were 13 μM [γ-^33P] ATP (25 mCi ^33P ATP/mmol ATP, Perkin Elmer, Cambridge, Mass./Sigma Chemicals, St Louis, Mo.) and 27 μM Myelin Basic Protein (MBP). Final enzyme concentration in the assay was 5 nM ROCK. Assays were carried out at room temperature. 1.5 μl of DMSO stock containing serial dilutions of the compound of the present invention (concentrations ranging from 10 μM to 2.6 nM) was placed in a 96 well plate. 50 μl of Solution 1 (100 mM HEPES (pH 7.5), 10 mM MgCl2, […]) was added to the plate. The reaction was initiated by addition of 50 μl of Solution 2 (100 mM HEPES (pH 7.5), 10 mM MgCl2, 4 mM DTT, […] and 10 nM ROCK). After 2 hours the reaction was quenched with 50 μL of 30% trichloroacetic acid (TCA, Fisher) containing 9 mM ATP. Transfer of 140 μL of the quenched reaction to a glass fiber filter plate (Corning, Cat. No. 3511) was followed by washing 3 times with 5% TCA. 50 μL of Optima Gold scintillation fluid (Perkin Elmer) was added and the plates were counted on a Top Count (Perkin Elmer). After removing mean background values for all of the data points the data was fit using Prism software to obtain a Ki(app).
An assay stock buffer solution was prepared containing all of the reagents listed above with the exception of ATP and the test compound of interest. The assay stock buffer solution (60 μl) was incubated in a 96 well plate with 2 μl of the test compound of interest at final concentrations spanning 0.002 μM to 30 μM at 30° C. for 10 min. Typically, a 12 point titration was conducted by preparing serial dilutions (from 1 mM compound stocks) with DMSO of the test compounds in daughter plates. The reaction was initiated by the addition of 5 μl of ATP (final concentration 200 μM). Rates of reaction were obtained using a Molecular Devices Spectramax plate reader (Sunnyvale, Calif.) over 10 min at 30° C. The Ki values were determined from the rate data as a function of inhibitor concentration using computerized nonlinear regression (Prism 3.0, Graphpad Software, San Diego, Calif.). Aurora-C activity was screened in a similar manner using Aurora-C protein. Aurora-B activity was screened using a radioactive assay, such as described in Examples 1 and 2, but using Aurora-B protein.

| Ki [1] [nM] | Ki (ROCK I (AA 6-553)) [nM] | Ki (JAK2) [nM] | Ki (JAK3) [nM] | Ki (Aurora-B) [nM] | Structure (SMILES) |
| --- | --- | --- | --- | --- | --- |
| < 500 | 500 to 5000 | < 500 | < 500 |  | O=C(O)c1cc(Br)cc(-c2c[nH]c3ncc(Cl)cc23)c1 [Compound 177] |
| 500 to 5000 | 500 to 5000 | < 500 | < 500 |  | CC(=O)N1[C@H](C)CN(c2cccc(-c3c[nH]c4ncc(NC(=O)c5cccc(C#N)c5)cc34)n2)C[C@@H]1C [Compound 179] |
| 500 to 5000 | 500 to 5000 | < 500 | < 500 |  | C/C=C/C(=O)Nc1cnc2[nH]cc(-c3cccc(N4C[C@@H](C)N(C(C)=O)[C@@H](C)C4)n3)c2c1 [Compound 181] |
| 500 to 5000 | 500 to 5000 | < 500 | < 500 |  | CC(=O)N1[C@H](C)CN(c2cccc(-c3c[nH]c4ncc(NC(=O)c5cccs5)cc34)n2)C[C@@H]1C [Compound 182] |
| 500 to 5000 | 500 to 5000 | < 500 | < 500 |  | CC(=O)N1[C@H](C)CN(c2cccc(-c3c[nH]c4ncc(NC(=O)c5nc[nH]n5)cc34)n2)C[C@@H]1C [Compound 190] |
| 500 to 5000 | < 500 | < 500 | < 500 |  | C=C/C=C/C(=O)Nc1cnc2[nH]cc(-c3cccc(N4C[C@@H](C)N(C(C)=O)[C@@H](C)C4)n3)c2c1 [Compound 191] |
| 500 to 5000 | < 500 | < 500 | < 500 |  | CC(=O)N1[C@H](C)CN(c2cccc(-c3c[nH]c4ncc(NC(=O)/C=C/Cl)cc34)n2)C[C@@H]1C [Compound 192] |
| < 500 | 500 to 5000 |  |  | 500 to 5000 | Clc1cnc2[nH]cc(-c3cccc(NC4CCCCCC4)n3)c2c1 [Compound 291] |
| < 500 | < 500 |  |  | < 500 | Cc1ccccc1Nc1nc(-c2c[nH]c3ncc(Cl)cc23)ncc1F [Compound 299] |
| < 500 | < 500 |  |  | < 500 | Cc1cccc(C)c1Nc1nc(-c2c[nH]c3ncc(Cl)cc23)ncc1F [Compound 300] |
| < 500 | 500 to 5000 |  |  | < 500 | Fc1cnc(-c2c[nH]c3ncc(Cl)cc23)nc1N[C@H]1CCc2ccccc21 [Compound 302] |
| < 500 | 500 to 5000 |  |  | < 500 | COc1cccc([C@H](C)Nc2nc(-c3c[nH]c4ncc(Cl)cc34)ncc2F)c1 [Compound 305] |
| < 500 | 500 to 5000 |  |  | < 500 | C[C@@H](Nc1nc(-c2c[nH]c3ncc(Cl)cc23)ncc1F)c1ccc([N+](=O)[O-])cc1 [Compound 310] |
| < 500 | 500 to 5000 |  |  | 500 to 5000 | CC(C)Nc1nc(-c2c[nH]c3ncc(Cl)cc23)ncc1F [Compound 315] |
| < 500 | 500 to 5000 |  |  | < 500 | Cc1cnc(-c2c[nH]c3ncc(Cl)cc23)nc1N[C@@H](C)c1ccc(F)cc1 [Compound 322] |
| < 500 |  |  |  | < 500 | COC(=O)COc1cccc([C@H](C)Nc2nc(-c3c[nH]c4ncc(Cl)cc34)ncc2F)c1 [Compound 335] |
| < 500 |  |  |  | 500 to 5000 | C#CCNc1nc(-c2c[nH]c3ncc(Cl)cc23)ncc1F [Compound 382] |
| 500 to 5000 |  |  |  | 500 to 5000 | C[C@H](Nc1cc(NCCN(C)C)nc(-c2c[nH]c3ncc(Cl)cc23)n1)C(=O)NCC(F)(F)F [Compound 419] |
| 500 to 5000 |  |  |  | 500 to 5000 | C[C@H](Nc1nc(-c2c[nH]c3ncc(Cl)cc23)ncc1F)C(=O)NCCOc1ccccc1 [Compound 457] |
| 500 to 5000 |  |  |  | 500 to 5000 | C[C@H](Nc1nc(-c2c[nH]c3ncc(Cl)cc23)ncc1F)C(=O)NCCc1nc2ccccc2[nH]1 [Compound 459] |
| 500 to 5000 |  |  |  | 500 to 5000 | C[C@H](Nc1nc(-c2c[nH]c3ncc(Cl)cc23)ncc1F)C(=O)NCCCN1CCCC1=O [Compound 460] |
| 500 to 5000 |  |  |  | 500 to 5000 | C[C@H](Nc1nc(-c2c[nH]c3ncc(Cl)cc23)ncc1F)C(=O)NCCSCc1c(Cl)cccc1Cl [Compound 462] |
| < 500 |  |  |  | 500 to 5000 | CCCC[C@H](C)NC(=O)[C@H](C)Nc1nc(-c2c[nH]c3ncc(Cl)cc23)ncc1F [Compound 463] |
